For data set [1] the following is noted: logarithmic stability constant of the cation/chelator complex; ionic strength of 0.1 M, 25° C.; cited from earlier work.
For data set [2], the target named is Protease4 (subtilisin BPN′) (Bacillus amyloliquefaciens, UniProt P00782, Y324L). The data set can be described thus: Storage stability of Protease4 in liquid ADW detergent (residual protease activity, N,N-dimethylcasein hydrolysis). Type of data set: biochemical. The settings on record: Detergent A, Example 2. The text has this: Chemicals used as buffers and substrates were commercial products of at least reagent grade. Protease1, Protease2, Protease3, and Protease4, as used in the examples below, are subtilisin proteases. Protease1 has the amino acid sequence shown in SEQ ID NO: 1 (subtilisin 309). Protease2 has the amino acid sequence shown in SEQ ID NO: 2 (variant of subtilisin 309). Protease3 has the amino acid sequence shown in SEQ ID NO: 3 (variant of subtilisin 309). Protease4 has the amino acid sequence shown in SEQ ID NO: 4 (subtilisin BPN′).
Various peptide aldehydes were produced, all with a purity >80%. The peptide aldehydes were dissolved in DMSO to a concentration of 10 mg/ml before use.
(§1) To detergent A from Example 1, the following amount of enzyme and different inhibitors (peptide aldehydes) were added, all samples normalized to 100 g of detergent. […] Three subtilisin proteases were used: Protease1, Protease2, and Protease4, all in concentration of 0.04 g active enzyme protein per gram of enzyme solution.
(§2) The detergents were placed in closed glasses at 37° C. for 2 weeks. Residual activity of protease was measured (by comparison to a reference stored at −18° C.) using standard enzyme analytical method (protease activity measured by hydrolysis of N,N-dimethylcasein at 40° C., pH=8.3).

Data set [3] has as its target T1, Protease4 (subtilisin BPN′) (Artificial sequence).
T1 chain: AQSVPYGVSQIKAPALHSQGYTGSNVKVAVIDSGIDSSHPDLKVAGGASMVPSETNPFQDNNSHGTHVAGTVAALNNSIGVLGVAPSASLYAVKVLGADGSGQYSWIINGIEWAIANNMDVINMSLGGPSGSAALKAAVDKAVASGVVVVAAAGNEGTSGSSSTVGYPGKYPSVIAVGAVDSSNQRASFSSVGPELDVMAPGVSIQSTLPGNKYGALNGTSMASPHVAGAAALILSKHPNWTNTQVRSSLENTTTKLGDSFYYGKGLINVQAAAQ
The data set can be described thus: cell-based or functional assay.

Data set [4] deals with T2, Protease2 (variant of subtilisin 309) (Artificial sequence).
T2 chain: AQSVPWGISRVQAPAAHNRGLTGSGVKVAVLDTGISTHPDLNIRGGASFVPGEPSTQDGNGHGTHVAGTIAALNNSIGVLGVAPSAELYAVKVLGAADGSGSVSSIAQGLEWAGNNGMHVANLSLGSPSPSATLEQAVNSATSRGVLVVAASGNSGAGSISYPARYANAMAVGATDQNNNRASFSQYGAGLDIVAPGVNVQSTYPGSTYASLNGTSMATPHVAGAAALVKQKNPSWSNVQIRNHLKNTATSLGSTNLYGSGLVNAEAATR
Briefly: cell-based or functional assay.

The target in data set [5] is T3, Protease1 (subtilisin 309) (Bacillus lentus).
T3 chain: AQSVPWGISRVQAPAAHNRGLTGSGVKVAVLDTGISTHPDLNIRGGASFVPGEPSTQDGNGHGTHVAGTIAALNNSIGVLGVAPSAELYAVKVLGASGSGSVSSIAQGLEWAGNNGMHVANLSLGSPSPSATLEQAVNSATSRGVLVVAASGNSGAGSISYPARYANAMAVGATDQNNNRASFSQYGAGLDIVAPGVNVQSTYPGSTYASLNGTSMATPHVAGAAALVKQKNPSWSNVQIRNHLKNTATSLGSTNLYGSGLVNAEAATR
The data set can be described thus: cell-based or functional assay.

For data set [6], the target named is T4, Protease1 (subtilisin 309) (Lederbergia lenta, UniProt P29600).
T4 sequence (P29600 1-269): T3 chain
The data set can be described thus: Storage stability of Protease1 in liquid ADW detergent (residual protease activity, N,N-dimethylcasein hydrolysis). In kind it is biochemical. As to conditions: Protease1, no inhibitor, Detergent A, Example 2. The procedure:
(§3) Chemicals used as buffers and substrates were commercial products of at least reagent grade. Protease1, Protease2, Protease3, and Protease4, as used in the examples below, are subtilisin proteases. Protease1 has the amino acid sequence shown in SEQ ID NO: 1 (subtilisin 309). […] Protease4 has the amino acid sequence shown in SEQ ID NO: 4 (subtilisin BPN′).
as §1, §2

Data set [7] has as its target Protease3 (variant of subtilisin 309) (Lederbergia lenta, UniProt P29600, INS97E). Briefly: Storage stability of Protease3 in liquid ADW detergent (residual protease activity, N,N-dimethylcasein hydrolysis). Type of data set: biochemical. The settings on record: Protease3, no inhibitor. The procedure: as §3
(§4) The peptide aldehyde hydrosulfite adduct described above was dissolved in 40% propylene glycol and water was added to make a 24% w/w solution of the adduct.
(§5) [formula] […] Protease2 and Protease3 were used in concentrations of 0.04 g active enzyme protein per gram of enzyme solution.
as §2

The target of data set [8] is Protease2 (variant of subtilisin 309) (Lederbergia lenta, UniProt P29600, DUP96-96/S97D). The data set can be described thus: Storage stability of Protease2 in liquid ADW detergent (residual protease activity, N,N-dimethylcasein hydrolysis). Type of data set: biochemical. The settings on record: Protease2, no inhibitor. How it is done: as §3, §4, §5, §2, §1

Numbering of substitutions follows the chain as printed. Primed or numbered codes have the meaning given here. The star is where a group is joined. aldehyde′ = not defined here; Cbz = O=C(OCc1ccccc1)*; Moc = COC(=O)*

This is an account of results in patent US10308899B2, “Liquid automatic dish washing detergent compositions” (Novozymes A/S, priority 2013, dated 2019).

Sequence of Protease3 (variant of subtilisin 309) (P29600 other isoform, or with tags, fused parts or gaps INS97E): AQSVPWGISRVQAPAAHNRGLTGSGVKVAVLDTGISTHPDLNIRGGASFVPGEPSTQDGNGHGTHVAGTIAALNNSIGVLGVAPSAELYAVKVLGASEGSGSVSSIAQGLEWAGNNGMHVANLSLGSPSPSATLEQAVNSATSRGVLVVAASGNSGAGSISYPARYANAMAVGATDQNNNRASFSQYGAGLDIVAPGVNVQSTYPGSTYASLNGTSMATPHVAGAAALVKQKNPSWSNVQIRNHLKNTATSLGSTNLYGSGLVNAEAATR

As to `O=C(O)CC(NCCNC(CC(=O)O)C(=O)O)C(=O)O` (mixture of isomers) [EDDS, ethylenediaminedisuccinic acid], the “Log KCa” value in data set [1] was 4.6.
`O=P(O)(O)CN(CP(=O)(O)O)CP(=O)(O)O` [AMP, Amino-tris-(methylene-phosphonic acid)]: the “Log KCa” value in data set [1] is recorded as 1.7.
Consider `O=C([O-])[O-].[Na+].[Na+]` [Carbonate, sodium carbonate], for which the “Log KCa” value in data set [1] was 7.8.
As for `O=C(O)CC(O)(CC(=O)O)C(=O)O` [Citric acid], the “Log KCa” value in data set [1] is on record as 3.5.
For `O=P(O)(O)CN(CCN(CP(=O)(O)O)CP(=O)(O)O)CCN(CP(=O)(O)O)CP(=O)(O)O` [DTPMP, Diethylenetriamine Penta(Methylene Phosphonic acid)], the “Log KCa” value in data set [1] is on record as 7.1.
Turning to `O=C(O)CN(CCN(CC(=O)O)CC(=O)O)CC(=O)O` [EDTA, Ethylenediaminetetraacetic acid], the “Log KCa” value in data set [1] is given as 10.7.
As to `O=C([O-])CC[C@@H](C(=O)[O-])N(CC(=O)[O-])CC(=O)[O-].[Na+].[Na+].[Na+].[Na+]` [GLDA, L-glutamic acid N,N-diacetic acid tetra sodium salt], the “Log KCa” value in data set [1] is reported as 5.2.
As to `CC(O)(P(=O)(O)O)P(=O)(O)O` [HEDP, 1-Hydroxy Ethylidene-1,1-Diphosphonic Acid], the “Log KCa” value in data set [1] was 6.
Regarding `O=C(O)CC(NC(CC(=O)O)C(=O)O)C(=O)O` (stereo not drawn) [IDS, iminodisuccinic acid], the “Log KCa” value in data set [1] was 5.2.
As to `CC(C(=O)O)N(CC(=O)O)CC(=O)O` (stereo not drawn) [MGDA, methylglycinediacetic acid], the “Log KCa” value in data set [1] is listed as 7.
With `O=C(O)CN(CC(=O)O)CC(=O)O` [NTA, Nitrilotriacetic acid], in data set [1], the “Log KCa” value is recorded as 6.4.
Consider `O=P(O)(O)CN(CP(=O)(O)O)CP(=O)(O)O` [NTMP, Nitrilo trimethylene phosphonic acid], for which the “Log KCa” value in data set [1] was 7.6.
Regarding `O=P(O)(O)OP(=O)(O)O` [Pyrophosphate], the “Log KCa” value in data set [1] is 5.
As for `O=P(O)(O)OP(=O)(O)OP(=O)(O)O` [STPP, sodium tripolyphosphate], in data set [1], the “Log KCa” value is recorded as 5.36.
With “Moc-Val-Ala-Leu-H (Moc-Val-Ala-Leu-{aldehyde′}; reading uncertain; also: printed as Moc-Val-Ala-Leu-H) [peptide aldehyde, Moc is methoxycarbonyl]”, the “Residual protease activity after two weeks at 37° C.” value (from here on “Residual protease activity”) in data set [2] (Protease4 with 3.3 mg peptide aldehyde/100 g (mole ratio 3.2)) was determined as 57%.
Moc-Val-Ala-Leu-aldehyde (also: C-terminal aldehyde on Leu) [Moc-Val-Ala-Leu-H]: the “Residual protease activity” value in data set [3] was 57%.
For the molecule Cbz-Gly-Ala-Tyr-aldehyde (also: C-terminal aldehyde on Tyr) [Cbz-Gly-Ala-Tyr-H], the “Residual protease activity” value in data set [4] is 86%; in data set [5], 81%.

B1: Protease1: subtilisin protease, amino acid sequence SEQ ID NO: 1 (subtilisin 309) (protein, listed as Bacillus lentus)
chain: T3 chain
For B1, the “Residual protease activity” value in data set [6] was 25%.

B2: Protease4: subtilisin protease, SEQ ID NO: 4 (subtilisin BPN′) (protein)
chain: T1 chain
modifications: BPN′ variant
As to B2, the “Residual protease activity” value in data set [2] (Protease4, no inhibitor) came out at 5%.

B3: Protease3: subtilisin protease, SEQ ID NO: 3 (variant of subtilisin 309) (protein)
chain: T2 chain with A97S, D98E
modifications: variant of SEQ ID NO 1
As to B3, the “Residual protease activity” value in data set [7] (Detergent A (invention)) amounted to 6%; in data set [7] (Detergent B (invention)) it was 44%; in data set [7] (Detergent C (reference)), 74%.

B4: Protease2: subtilisin protease, SEQ ID NO: 2 (variant of subtilisin 309) (protein)
chain: T2 chain
modifications: variant of SEQ ID NO 1
On to B4, for which the “Residual protease activity” value was 1% in data set [8] (Detergent A (invention), Example 1); 1% in data set [8] (Detergent A, Example 2); 10% in data set [8] (Detergent B (invention), Example 1); 76% in data set [8] (Detergent C (reference), Example 1).
